From patent publication EP0428132A1, “Pradimicin derivatives” (Bristol-Myers Squibb Company, priority 1989, dated 1991)
Converted amounts (≈) assume the structure as drawn.

Experiments:
Candida albicans A9540 [1] = assay: Intravenous Candida albicans infection mouse model, Table 2 part A; format: in vivo; details: drug administered once just after infection, 20 days after fungal challenge, method of Litchfield and Wilcoxon, male ICR mice
Protocol: Several compounds were also evaluated in an intravenous Candida albicans […] infection mouse model. The test organism was suspended in saline approximately 10 times the median lethal dose of the fungus (10⁶ cells/mouse) were used to infect intravenously male ICR mice weighing 20 to 24 g. Groups of five mice at each dose level were given the test compounds intravenously or intramuscularly. The 50% protective dose (PD₅₀) was calculated from survival rates recorded 20 or 21 days after the fungal challenge. Control animals died between 7 to 15 days.

FA21436 = assay: In vitro antifungal activity, serial agar dilution method (Table 1); format: cell-based, Asoergukkys flavus; details: for MIC: 40 h, pH 7, read-out: MIC, Asoergukkys flavus FA21436; for Partial Inhibition, Asoergukkys flavus FA21436: value in parentheses = Partial Inhibition, Sabouraud dextrose agar (pH 7.0), 28°C for 40 hours
Protocol: (§1) The inoculum size was adjusted to 10⁶ cells/ml, and a volume of approximately 0.003 ml of fungal suspension was applied to the surface of the antibiotic containing agar plates with a multiinoculator. After incubation, the lowest concentration of antibiotic causing virtually complete inhibition of fungal growth was determined as the minimum inhibitory concentration (MIC). Table 1. [table]

[2] = tested on: Cryptococcus neoformans D49; assay: In vitro antifungal activity, serial agar dilution method (Table 1); format: cell-based; details: Cryptococcus neoformans, D49, 40 h, pH 7, read-out: MIC, Cryptococcus neoformans D49
Protocol: as §1

Candida albicans A9540 [3] = assay: as above; format: cell-based; details: Candida albicans, A9540; Sabouraud dextrose agar (pH 7.0); 28°C for 40 hours
Protocol: as §1

[4] = tested on: Sprotricosis schenckii IFO8158; assay: as above; format: cell-based; details: for MIC: 40 h, pH 7, read-out: MIC, Sprotricosis schenckii IFO8158; for Partial Inhibition, Sprotricosis schenckii IFO8158: value in parentheses = Partial Inhibition, Sabouraud dextrose agar (pH 7.0), 28°C for 40 hours
Protocol: as §1

Mucor spinosus IFO5317 = assay: as above; format: cell-based; details: Sabouraud dextrose agar (pH 7.0), 28°C for 40 hours; for MIC: Mucor spinosus, IFO5317; for Partial Inhibition, Mucor spinosus IFO5317: value in parentheses = Partial Inhibition
Protocol: as §1

[5] = tested on: Blastomyces dermatidis D40; assay: as above; format: cell-based; details: for MIC: Blastomyces, D40, 40 h, pH 7, read-out: MIC, Blastomyces dermatidis D40; for Partial Inhibition, Blastomyces dermatidis D40: value in parentheses = Partial Inhibition, Sabouraud dextrose agar (pH 7.0), 28°C for 40 hours
Protocol: as §1

[6] = tested on: Cryptococcus neoformans IAM4514; assay: as above; format: cell-based; details: Cryptococcus neoformans, IAM4514; Sabouraud dextrose agar (pH 7.0); 28°C for 40 hours
Protocol: as §1

[7] = tested on: Aspergillus fumigatus IAM2034; assay: as above; format: cell-based; details: Sabouraud dextrose agar (pH 7.0), 28°C for 40 hours; for MIC: Aspergillus fumigatus, IAM2034; for Partial Inhibition, Aspergillus fumigatus IAM2034: value in parentheses = Partial Inhibition
Protocol: as §1

[8] = tested on: Fusarium moniliforme A2284; assay: as above; format: cell-based; details: Fusarium verticillioides, A2284; Sabouraud dextrose agar (pH 7.0); 28°C for 40 hours
Protocol: as §1

Candida albicans IAM4888 = assay: as above; format: cell-based; details: Candida albicans, IAM4888; Sabouraud dextrose agar (pH 7.0); 28°C for 40 hours
Protocol: as §1

[9] = tested on: Aspergillus fumigatus IAM2530; assay: as above; format: cell-based; details: Sabouraud dextrose agar (pH 7.0), 28°C for 40 hours; for MIC: Aspergillus fumigatus, IAM2530
Protocol: as §1

[10] = tested on: Petriellidium boydii IFO8078; assay: as above; format: cell-based; details: Scedosporium boydii, IFO8078; Sabouraud dextrose agar (pH 7.0); 28°C for 40 hours
Protocol: as §1

[11] = tested on: Trichophyton mentagrophytes D155; assay: as above; format: cell-based; details: Trichophyton mentagrophytes, D155; Sabouraud dextrose agar (pH 7.0); 28°C for 40 hours
Protocol: as §1

[12] = tested on: Trichophyton mentagrophytes #4329; assay: as above; format: cell-based; details: Trichophyton mentagrophytes; Sabouraud dextrose agar (pH 7.0); 28°C for 40 hours
Protocol: as §1

Protocol for physchem: The sample (3 ∼ 3.5 mg) was suspended in 1 ml of PBS(-) or PBS(+), sonicated at 30°C for 10 minutes, and allowed to stand at room temperature for 2 hours. The resulting solution or suspension was centrifuged at 12,000 rpm for 10 minutes. The supernatant (pH 6.7 ∼ 7.2) was diluted (5 x or 50 x) with 0.01N NaOH (pH ca. 11.5) and its UV absorption at 500 nm was measured. The solubility was assessed by the absorption coefficient value with reference to the standard. […] The zwitterionic form sample was used for the solubility test as it is. The hydrochloride salt sample (3 mg) was dissolved in 3 ml of distilled water and neutralized with 0.01N NaOH, and then the solution was lyophilized to give a test sample.
Dulbecco's phosphate buffered saline (PBS) solution was used. Preparation of PBS(-) solution: One PBS(-) tablet (Flow Laboratories, Cat. No. 28-103-05) was dissolved in 100 ml distilled water, and the solution was autoclaved for 10 minutes at 115°C. This solution contains 0.2 g/L of KCl, 0.2 g/L of KH₂PO₄, 8 g/L of NaCl, and 1.15 g/L of Na₂HPO₄. Preparation of PBS(+) solution: One PBS(-) tablet was dissolved in 80 ml distilled water; 10 mg of CaCl₂ was dissolved in 10 ml distilled water; 10 mg of MgCl₂, 6H₂O was dissolved in 10 ml distilled water. These solutions were separately autoclaved, as described above, and mixed when cooled.

Row | Compound | PD₅₀ (Candida albicans A9540 [1]) [mg/kg] | MIC (FA21436) [µg/mL] | solubility at 2 h (physchem; Method II (-): PBS(-)) [mg/mL] | MIC [2] [µg/mL] | MIC (Candida albicans A9540 [3]) [µg/mL] | MIC [4] [µg/mL] | Partial Inhibition, Sprotricosis schenckii IFO8158 [4] [µg/mL] | MIC (Mucor spinosus IFO5317) [µg/mL] | Partial Inhibition, Mucor spinosus IFO5317 (Mucor spinosus IFO5317) | MIC [5] [µg/mL] | Partial Inhibition, Blastomyces dermatidis D40 [5] [µg/mL] | MIC [6] [µg/mL] | MIC [7] [µg/mL] | Partial Inhibition, Aspergillus fumigatus IAM2034 [7] | MIC [8] [µg/mL] | MIC (Candida albicans IAM4888) [µg/mL] | MIC [9] [µg/mL] | MIC [10] [µg/mL] | MIC [11] [µg/mL] | MIC [12] [µg/mL] | also measured
1 | COc1cc(O)c2c(c1)C(=O)c1c(cc3c(c1O)-c1c(cc(C)c(C(=O)N[C@H](C)C(=O)O)c1O)[C@H](O[C@@H]1O[C@H](C)[C@H](N(C)CC(=O)O)[C@H](O[C@@H]4OC[C@@H](O)[C@H](O)[C@H]4O)[C@H]1O)[C@H]3O)C2=O [Ex. 1, N-(carboxymethyl) pradimicin A] | 45 | > 100 | > 30 | 25 (≈ 27.8 µM) | 50 (≈ 55.6 µM) | > 100 | 50.0 | > 100 | >100.0 (100.0) µg/ml | > 100 | 50.0 | 12.5 (≈ 13.9 µM) | > 100 | 50.0 µg/mL | > 100 | 50 (≈ 55.6 µM) | 100 (≈ 111 µM) | > 100 | > 100 | > 100 | solubility at 2 h (physchem; Method II (+): PBS(+)): > 31 mg/mL
2 | COc1cc(O)c2c(c1)C(=O)c1c(cc3c(c1O)-c1c(cc(C)c(C(=O)N[C@H](C)C(=O)O)c1O)[C@H](O[C@@H]1O[C@H](C)[C@H](N(C)CC(N)=O)[C@H](O[C@@H]4OC[C@@H](O)[C@H](O)[C@H]4O)[C@H]1O)[C@H]3O)C2=O [Ex. 2, N-(carbamoylmethyl) pradimicin A] | 29 | > 100 | 11 (≈ 12300 µM) | 12.5 (≈ 13.9 µM) | 50 (≈ 55.7 µM) | 25 (≈ 27.8 µM) | 12.5 | > 100 | >100.0 (100.0) µg/ml | 25 (≈ 27.8 µM) | 12.5 | 3.1 (≈ 3.45 µM) | > 100 | 50.0 µg/mL | > 100 | 25 (≈ 27.8 µM) | 12.5 (≈ 13.9 µM) | > 100 | > 100 | > 100 | Partial Inhibition, Asoergukkys flavus FA21436 (FA21436): 50.0 µg/mL
3 | CCOC(=O)CN(C)[C@@H]1[C@H](O[C@@H]2OC[C@@H](O)[C@H](O)[C@H]2O)[C@@H](O)[C@H](O[C@H]2c3cc(C)c(C(=O)N[C@H](C)C(=O)O)c(O)c3-c3c(cc4c(c3O)C(=O)c3cc(OC)cc(O)c3C4=O)[C@@H]2O)O[C@@H]1C [Ex. 3, N-(ethoxycarbonylmethyl) pradimicin A] | 18 | > 100 | 11 (≈ 11900 µM) | 6.3 (≈ 6.8 µM) | 50 (≈ 53.9 µM) | 25 (≈ 27 µM) | 12.5 | > 100 | >100.0 (100.0) µg/ml | 100 (≈ 108 µM) | 12.5 | 6.3 (≈ 6.8 µM) | > 100 | >100.0 (100.0) µg/ml | > 100 | 25 (≈ 27 µM) | 50 (≈ 53.9 µM) | > 100 | > 100 | > 100 | Partial Inhibition, Asoergukkys flavus FA21436 (FA21436): 50.0 µg/mL; Partial Inhibition, Aspergillus fumigatus IAM2530 ([9]; value in parentheses = Partial Inhibition): 25.0 µg/mL
